Legend:
[1] = system: human embryonic stem cells (CHA6 cell line); assay: Evaluation of differentiation of stem cells cultured in mTeSR-1 medium containing PKC activator; type: cell-based
Procedure: Colony clumps (5 colony clumps) of human embryonic stem cells (CHA6 cell line, CHA Medical University, Korea) were seeded to each wells of a 96-well plate coated with Matrigel (BD Biosciences, USA). A undifferentiation-maintaining medium, i.e., mTeSR-1 medium containing bFGF, TGF-beta, LiCl, GABA, and pipecolic acid (StemCell Technologies, USA), was added to the each wells, which were then cultured at about 37° C., in about 5.0% CO2 incubator. The culture was performed for 5 to 7 days, while replacing the medium with a new medium containing 10 nM of 12-O-tetradecanoylphorbol-13-acetate (TPA) as a PKC activator, everyday. As a control, human embryonic stem cells were cultured in the mTeSR-1 medium without the PKC activator. And also, human embryonic stem cells were cultured in the mTeSR-1 medium treated with both 10 nM of TPA and 5 uM of Go6983.
The cells cultured in the mTeSR-1 medium formed colony shapes, which were conglomerating each other, without differentiation (a in FIG. 3).
As a result of alkaline phosphatase staining, the staining level and colony shape of the cells cultured in the mTeSR-1 medium were similar to those of undifferentiated stem cells (d in FIG. 3).

[2] = system: human embryonic stem cells (CHA6 cell line); assay: Evaluation of differentiation of stem cells in other undifferentiation-maintaining mediums containing PKC activator; type: cell-based; details: FIG. 4
Procedure: Colony clumps (5 colony clumps) of human embryonic stem cells (CHA6 cell line, CHA Medical University, Korea) were seeded to each wells of a 96-well plate coated with Matrigel (BD Biosciences, USA). […] The culture was performed for 5 to 7 days, while replacing the medium with a new medium containing 10 nM of 12-O-tetradecanoylphorbol-13-acetate (TPA) as a PKC activator, everyday. […]
Evaluations of differentiation were also performed in accordance with the same procedures as in the above (1), using other undifferentiation-maintaining mediums, [i.e., Matrigel (extracellular matrix)/MEF-conditioned medium (Home made; Serum-free media [80% (v/v) DMEM/F12 (GIBCO), 20% (v/v) Knockout serum replacement (GIBCO), 1% (v/v) MEM non-essential amino acids (GIBCO), 0.1 mM β-mercaptoethanol (GIBCO), 1% (v/v) Pennicillin/streptomycin (Caisson)] was conditioned by γ-irradiated CF-1 mouse embryonic fibroblasts (MEF) at 37° C. for 24 hours) and CELLstart (extracellular matrix) (Invitrogen)/and STEMPRO (Invitrogen)], […] In addition, differentiation of other hESC, i.e., H9 hESC line (WiCell, Wis., USA) was also evaluated in the Matrigel (extracellular matrix)/MEF-conditioned medium with a PKC activator.

[3] = system: H9 hESC line; assay: Evaluation of differentiation of H9 hESC line in Matrigel/MEF-conditioned medium with PKC activator; type: cell-based, human; details: FIG. 4
[4] = system: human embryonic stem cells (CHA6 cell line); assay: Evaluation of stemness of stem cells cultured in non-conditioned medium containing PKC inhibitor; type: cell-based
Procedure: Colony clumps (5 colony clumps) of human embryonic stem cells (CHA6 cell line, CHA Medical University, Korea) were seeded to each wells of a 96-well plate coated with Matrigel (BD Biosciences, USA). A differentiation-inducing medium, i.e., MEF medium [Dulbecco's Modified Eagle Medium (DMEM) containing high glucose (WeIGENE, Korea) supplemented with 10% (v/v) FBS (WeIGENE, Korea), 1% (v/v) Penicillin/streptomycin (Caisson), 1% (v/v) NEAA (GIBCO), 0.1 mM beta-mercaptoethanol (GIBCO)], was added to the each wells, which were then cultured at about 37° C., in about 5.0% CO2 incubator. […]
Evaluations of stemness were also performed in accordance with the same procedures as in the above (1), using a non-conditioned medium [DMEM/F-12 high-glucose (GIBCO) supplemented with 20% (v/v) knockout serum replacement (GIBCO), 1% (v/v) Penicillin/streptomycin (Caisson), 1% (v/v) NEAA(GIBCO), and 0.1 mM beta-mercaptoethanol (GIBCO)], instead of the MEF medium. In addition, expression levels of Oct4 (Octamer Binding Transcription Factor-4), which is another un-differentiated cell marker, were also evaluated through immunostaining with antibody against Oct4.

[5] = system: human embryonic stem cells (CHA6 cell line); assay: Evaluation of stemness of stem cells cultured in MEF medium (differentiation-inducing) containing PKC inhibitor; type: cell-based; details: 5 to 7 days
Procedure: Colony clumps (5 colony clumps) of human embryonic stem cells (CHA6 cell line, CHA Medical University, Korea) were seeded to each wells of a 96-well plate coated with Matrigel (BD Biosciences, USA). A differentiation-inducing medium, i.e., MEF medium [Dulbecco's Modified Eagle Medium (DMEM) containing high glucose (WeIGENE, Korea) supplemented with 10% (v/v) FBS (WeIGENE, Korea), 1% (v/v) Penicillin/streptomycin (Caisson), 1% (v/v) NEAA (GIBCO), 0.1 mM beta-mercaptoethanol (GIBCO)], was added to the each wells, which were then cultured at about 37° C., in about 5.0% CO2 incubator. The culture was performed for 5 to 7 days, while replacing the medium with a new medium containing 5 uM of 3-[1-[3-(dimethylamino)propyl]-5-methoxy-1H-indol-3-yl]-4-(1H-indol-3-yl)-1H-pyrrole-2,5-dione)(Gö6983, Calbiochem) as a PKC inhibitor, everyday.
As a control, human embryonic stem cells were cultured in the MEF medium without the PKC inhibitor. And also, human embryonic stem cells were cultured in a differentiation-inhibiting medium, i.e., mTeSR-1 medium containing bFGF, TGF-beta, LiCl, GABA, and pipecolic acid (StemCell Technologies, USA). […]

| SMILES | differentiation, shape and distribution of the cells (optical microscope) ([1]; mTeSR-1 medium, 10 nM TPA replaced everyday, 5 to 7 days, FIG. 3 b) | alkaline phosphatase staining level ([1]; mTeSR-1 medium, 10 nM TPA, FIG. 3 e) | induction of differentiation of hESCs ([2]; CELLstart/STEMPRO medium with PKC activator) | induction of differentiation of hESCs ([2]; Matrigel/MEF-conditioned medium with PKC activator) | induction of differentiation of hESCs [3] | alkaline phosphatase expression level ([4]; NCM containing Gö6983, FIG. 2A f) | Oct4 expression level (immunostaining) ([4]; NCM containing Gö6983, FIG. 2B c) | cell shape under co-treatment with PKC activator (inhibition of TPA-induced differentiation) ([1]; mTeSR-1 medium treated with both 10 nM TPA and 5 uM Gö6983, FIG. 3 c and f) | shape, existence and distribution of the cells (optical microscope, nucleus-staining with DAPI) ([5]; 5 uM PKC inhibitor replaced everyday, Matrigel-coated, FIG. 1 a-f) | alkaline phosphatase expression level (un-differentiated cell marker, staining) ([5]; 5 uM PKC inhibitor, FIG. 1 g-i) |
| --- | --- | --- | --- | --- | --- | --- | --- | --- | --- | --- |
| CCCCCCCCCCCCCC(=O)O[C@@H]1[C@@H](C)[C@@]2(O)[C@@H](C=C(CO)C[C@]3(O)C(=O)C(C)=C[C@@H]23)[C@@H]2C(C)(C)[C@]12OC(C)=O [TPA, 12-O-tetradecanoylphorbol-13-acetate] | differentiated and broadly distributed | very low alkaline phosphatase staining level | induced differentiation of hESCs | induced differentiation of hESCs | induction of differentiation by the PKC activator was also observed | – | – | – | – | – |
| COc1ccc2c(c1)c(C1=C(c3c[nH]c4ccccc34)C(=O)NC1=O)cn2CCCN(C)C [Gö6983, 3-[1-[3-(dimethylamino)propyl]-5-methoxy-1H-indol-3-yl]-4-(1H-indol-3-yl)-1H-pyrrole-2,5-dione] | – | – | – | – | – | significant increases | significant increases | shapes similar to undifferentiated stem cells | maintained colony shapes, which were conglomerating each other | significant increase in alkaline phosphatase expression level |

Reference: US20120238019A1, “STEM CELL CULTURE MEDIA FOR MAINTAINING STEMNESS OR INDUCING DIFFERENTIATION OF STEM CELLS” (COLLEGE OF MEDICINE POCHON CHA UNIVERSITY INDUSTRY-ACADEMIC …, priority 2011, published 2012)
